Laboratory results published in patent publication US5641520A, “Halogen compositions for water treatment” (priority 1995, dated 1997).

Assay: Water solubility of solid halogenated hydantoins and halogen dissolved in a saturated solution
Format: physicochemical
Conditions: Table II; for Saturated Solution, amount of halogen dissolved: saturated solution in water

CC1(C)C(=O)N(Cl)C(=O)N1Br [Bromo-chlorodimethylhydantoin, bromochlorodimethylhydantoin]
Saturated Solution, amount of halogen dissolved: 825 mg/L as Cl2
Solubility (water): 0.15%

CC1(C)C(=O)N(Br)C(=O)N1Br [Dibromodimethylhydantion, 1,3-dibromo-5,5-dimethylhydantoin]
Saturated Solution, amount of halogen dissolved: 542 mg/L as Cl2
